The test system of data set [1] is rice blast fungi (Pyricularia orysae). It is filed as in vivo.
Data set [2] has as its system rice blast fungi (Pyricularia oryzae). The data set is classed as in vivo.
In data set [3] the test system is Adzuki bean weevils (Callosobruchus chinensis Linne). It is filed as in vivo. The conditions noted are these: emulsifiable concentrate; dip 1 minute; after 24 hours.
Data set [4] deals with carmine mites (Tetranychus telarius Linne). Description: Test Example 7: leaf dipping test on carmine mites, mortality after 48 hours. The data set is classed as in vivo. The conditions noted are these: wettable powder, leaf dip 1 minute. Here is the method: Mottled kidney bean plants at the 2 leaves-stage, which had elapsed 20 days after sowing were parasitized with a large number of carmine mites (Tetranychus telarius Linne). […] Subsequently, water was added so as not to wither the leaves. After 48 hours, the alive and dead of the mites were observed.

Data set [5] concerns carmine mite (Tetranychus telarius Linne). Description: whole plant or invertebrate. The conditions noted are these: in Phaseolus vulgaris.
The subject of data set [6] is carmine mites (Tetranychus terarius Linne). Description: whole plant or invertebrate. The conditions noted are these: in Glycine max, 72 h, read-out: Mortality (%) (average of 2 sections).
The subject of data set [7] is northern house mosquitoes (Culex pipiens pallens Coquillett). Description: whole plant or invertebrate. The data set is classed as in vivo. The conditions noted are these: granules in water, after 24 hours. The source says: Well water was charged into a 500 cc. beaker. Into the water, full grown larvae of northern house mosquitoes (Culex pipiens pallens Coquillett) were liberated, and the present compounds (12), (16), (17), (23), (25), (26), (27), (29), (30), (85), (87), (88), (89), (94), (95), (96), (97), (100), (102), (103), (104), (105), (106), (107), (108), (109) and (110) in the form of granules were individually charged.

The subject of data set [8] is carmine mites (Tetranychus telarius Linne). Description: whole plant or invertebrate. To be noted: in Phaseolus vulgaris.
Data set [9] concerns carmine mites (Tetranychus terarius Linne). In words: Test Example 16: leaf dipping test on carmine mites, mortality after 48 hours. It is filed as in vivo. To be noted: wettable powder, leaf dip 1 minute. Here is the method: Mottled kidney bean plants at the 2 leaves-stage, which had elapsed 20 days after sowing, were parasitized with a large number of carmine mites (Tetranychus terarius Linne). The leaves of said plants parasitized with the mites were individually dipped for 1 minute in each of solutions prepared by diluting with water the present compounds (35) to (37), (41) to (44) and (46) to (56) in the form of wettable powders. Subsequently, water was added so as not to wither the leaves. After 48 hours, the alive and dead of the mites were observed.

Data set [10] has as its system carmine mite (Tetranychus teralius Linne). The conditions noted are these: dust 4 kg/10 ares.
Data set [11] concerns carmine mites (Tetranychus terarius Linne). The conditions noted are these: diluted 2,000 times; 100 Kg/10 ares; field; after 3 days.
The subject of data set [12] is Small brown plant hopper (Laoclelphex striatellus Fallen). Description: Test Example 15: insecticidal effects on small brown plant hopper. It is filed as in vivo, Laodelphax striatellus Fallen. To be noted: rice seedlings dipped 1 minute in emulsion; after 24 hours. Here is the method:
Insecticidal effects on Small brown plant hopper (Laoclelphex striatellus Fallen)
Rice seedlings (15-20 cm. in height), which had elapsed 15 days after germination, were individually dipped for 1 minute in emulsions prepared by diluting with water to given concentrations the present compounds (10), (14), (19), (23), (31), (85), (88), (90), (93), (94), (103), (104), (106) and (109) in the form of emulsifiable concentrates. After air-drying, the rice seedlings were individually charged into test glass tubes, and 20-30 plant hoppers (Laodelphax striatellus Fallen) were liberated in each tube, and the tube was covered with gauze.

The test system of data set [13] is rice steam borers (Chilo suppressalis Walker). Description: Test Example 11: mortality of rice stem borers on sprayed rice plants. The data set is classed as in vivo. To be noted: diluted 2,000 times; 6 cc. per pot; wettable powder; 4320 min. The source says: Rice plants at the tillering stage were individually grown in Wagner pots. Onto the rice plants were adhered and encroached eggs of rice steam borers (Chilo suppressalis Walker) immediately before hatching. After 3 days, the rice plants were individually sprayed with each 6 cc. per pot of solutions prepared by diluting with water to 2,000 times the present compounds (11), (14), (15) and (31) in the form of wettable powders.

For data set [14], the system named is carmine mite (Tetranychus telarius Linne). To be noted: dust 4 kg/10 ares.

≈ marks a conversion by molar mass, not a printed value. Where two headings read alike, the source gives them in different places.

Regarding `CCOP(=O)(OCC)SCc1ccccc1` [0,0-Diethyl-S-benzyl-phosphorothioate, reference compound], the figures for the Curative value in [1] (500 p.p.m.) and in [2] (1,000 p.p.m.) were 69.1 and 78.6, respectively.

As for `CCOC(=O)CC(SP(=S)(OC)OC)C(=O)OCC` (stereo not drawn) [0,0-Dimethyl-S-(1,2-dicarboethoxyethyl) phosphorodithioate, reference compound], in data set [3], the “LC50 (diluted times)” value is on record as 8,800 diluted times.

`CCOP(=S)(OCC)SC1OCCOC1SP(=S)(OCC)OCC` (stereo not drawn) [2,3-p-Dioxane S,S-bis-(0,0-diethyl phosphorodithioate), reference compound]: the “LC50 (diluted times)” value in data set [4] is reported as 1,000,000 diluted times.

On to `CCCCSP(=O)(OCC)Oc1ccccc1` (stereo not drawn) [(1), O-ethyl-O-phenyl-S-n-butyl phosphorothiolate], for which, in [1] (500 p.p.m.), the Curative value came to 80.1.

As to `CCOP(=O)(Oc1ccccc1)SCCSc1ccccc1` (stereo not drawn) [(5), O-ethyl-O-phenyl-S-2-phenylthioethyl-phosphorothiolate], the mortality at 4 kg/10 ares in [5] (48 h) was 100%; in data set [5] (120 h) it was 98.8%; in data set [5] (216 h), 83.4%; in data set [5] (312 h), 34.4%.

Regarding `C=CCSP(=O)(OCC)Oc1ccc(C)cc1` (stereo not drawn) [(33), O-ethyl-O-4-methylphenyl-S-allyl-phosphorothiolate], in data set [6], the mortality at 2000 fold dilution amounted to 90.7%.

Take `CCCSP(=O)(OCC)Oc1cc(C)c(Cl)c(C)c1` (stereo not drawn) [(87)]: the LC50 in [7] (Culex pipiens, read-out: LC50) was determined as 0.054 µg/mL (≈ 0.167 µM). The mortality at 2000 fold dilution in data set [6] was determined as 90.6%. Besides, the mortality at 4 kg/10 ares in data set [8] (48 h) was found to be 100%; in [8] (120 h), 93.7%; in data set [8] (216 h), 82.3%; in [8] (312 h), 31.6%.

Take `CCOC(=O)C(O)(c1ccc(Cl)cc1)c1ccc(Cl)cc1` [Ethyl 4,4'-dichlorobenzilate, reference compound]: the “LC50 (diluted times)” value in [4] is 100,000 diluted times.

Regarding “O-ethyl-O-2,4-dichlorophenyl-S-N-phthalimidemethyl-phosphorothiolate [(53)]”, the “LC50 (times diluted)” value in data set [9] is 1,000,000 times diluted.

For the molecule “O-ethyl-O-2,4-dichlorophenyl-S-allyl phosphorothiolate [(49)]”, the “LC50 (times diluted)” value in [9] is 60,000 times diluted.

Turning to “O-ethyl-O-2,4-dichlorophenyl-S-sec-butyl-phosphorothiolate [(50)]”, the “LC50 (times diluted)” value in data set [9] is listed as 90,000 times diluted.

For “O-ethyl-O-2-chlorophenyl-S-2-phenylethyl phosphorothiolate [(13)]”, in data set [4], the “LC50 (diluted times)” value was 1,000,000 diluted times. The “Mortality (%)” value is recorded as 100% in data set [10] (After 2 days), 95.3% in data set [10] (After 5 days), 92.1% in [10] (After 9 days) and 61.2% in [10] (After 13 days).

With “O-ethyl-O-2-chlorophenyl-S-allyl-phosphorothiolate [(46)]”, the “LC50 (times diluted)” value in data set [9] is reported as 80,000 times diluted.

As to “O-ethyl-O-2-chlorophenyl-S-propargyl phosphorothiolate [(48)]”, the “LC50 (times diluted)” value in data set [9] was 150,000 times diluted.

On to “O-ethyl-O-2-chlorophenyl-S-sec-butyl-phosphorothiolate [(47)]”, for which the “LC50 (times diluted)” value in data set [9] is given as 15,000 times diluted.

As to “O-ethyl-O-3,4-dimethyl-S-2-phenylthioethylphosphorothiolate [(52)]”, the “LC50 (times diluted)” value in data set [9] is reported as 900,000 times diluted.

As to “O-ethyl-O-3,4-dimethylphenyl-S-2-phenylethyl-phosphorothiolate [(9)]”, in data set [3], the “LC50 (diluted times)” value is recorded as 200,000 diluted times. Further, the “Mortality (%)” value is 100% in [10] (After 2 days), 99.2% in data set [10] (After 5 days), 83.4% in data set [10] (After 9 days) and 53.4% in [10] (After 13 days).

Consider “O-ethyl-O-3,5-dimethyl-4-chlorophenyl-S-sec-butyl phosphorothiolate [(54)]”, for which the “LC50 (times diluted)” value in [9] is recorded as 70,000 times diluted.

For “O-ethyl-O-4-chlorophenyl-3-sec-butyl phosphorothiolate [(44)]”, in data set [9], the “LC50 (times diluted)” value is listed as 330,000 times diluted.

With “O-ethyl-O-4-chlorophenyl-S-2-ethylthio-ethyl-phosphorothiolate [(51)]”, the “LC50 (times diluted)” value in [9] is given as 1,200,000 times diluted.

Turning to “O-ethyl-O- 3,4-dimethylphenyl-s-(sec)-butyl phosphorothiolate [(37)]”, the “LC50 (times diluted)” value in data set [9] was 50,000 times diluted.

Turning to “O-ethyl-O- 3-methyl-4-chlorophenyl-S-2-phenylethyl-phosphorothiolate [(12)]”, in [11], the “Mortality (%) (average of 2 sections)” value worked out at 100.0%. In data set [7], this molecule returned an LC50 of 0.02 p.p.m. For the same molecule, in data set [3], the “LC50 (diluted times)” value was 180,000 diluted times.

As to “O-ethyl-O- 3-methylphenyl-S-2-phenylethyl phosphorothiolate [(10)]”, the results for the “LC50 (diluted times)” value in [4] and in data set [3] were 6,000,000 diluted times and 300,000 diluted times, respectively. Besides, the “LC50 (times diluted)” value in data set [12] is 512,000 times diluted.

Take “O-ethyl-O- 3-methylphenyl-S-(sec)-butyl-phosphorothiolate [(42)]”: the “LC50 (times diluted)” value in data set [9] is listed as 1,100,000 times diluted.

Regarding “O-ethyl-O- 3-methylphenyl-S-allyl-phosphorothiolate [(41)]”, the “LC50 (times diluted)” value in data set [9] was 1,100,000 times diluted.

As for “O-ethyl-O- 4-(tert)-butylphenyl-S-allyl phosphorothiolate [(36)]”, in data set [9], the “LC50 (times diluted)” value is listed as 540,000 times diluted.

Turning to “O-ethyl-O- 4-chlorophenyl-S-2-phenylethyl phosphorothiolate [(11)]”, the results for the “LC50 (diluted times)” value in [4] and in data set [3] were 256,000 diluted times and 105,000 diluted times, respectively. In data set [2] (in vivo), the “Curative value” was 87.1. The “Mortality (%)” value in data set [13] worked out at 96.3%.

“O-ethyl-O- 4-chlorophenyl-S-allylphosphorothiolate [(43)]”: the “LC50 (times diluted)” value in data set [9] was 11,000 times diluted.

As for “O-ethyl-O- 4-methylphenyl-S-(sec)-butyl-phosphorothiolate [(34)]”, the “Mortality (%) (average of 2 sections)” value in data set [11] worked out at 96.4%. Moreover, the “Curative value” in data set [2] (in vivo) stood at 97.2.

As for “O-ethyl-O- 4-methylphenyl-S-propargyl phosphorothiolate [(35)]”, in data set [9], the “LC50 (times diluted)” value is on record as 12,000,000 times diluted.

Take “O-ethyl-O-phenyl-S-2-phenylethyl-phosphorothiolate [(4)]”: the Mortality (%) in [14] (After 2 days) is listed as 100%; in data set [14] (After 5 days), 92.4%; in [14] (After 9 days), 81.3%; in data set [14] (After 13 days), 70.3%.

“O-ethyl-O-phenyl-S-allylphosphorothiolate [(3)]” had a Curative value in [1] (in vivo) of 98.6.

Consider “O-ethyl-O-phenyl-S-sec-butyl phosphorothiolate [(55)]”, for which the “LC50 (times diluted)” value in [9] is reported as 90,000 times diluted.

Take “Phenylmercuric acetate [reference compound]”: the values for the Curative value in [1] (in vivo) and in [2] (in vivo) were 47.6 and 47.7, respectively.

Source of the values: patent US4113864A (priority 1967, dated 1978).
